Test [1] deals with Red Palm Weevil larvae. In words: Insecticidal potential of coumarin at different doses incorporated in artificial diet (mortality bioassay). Particulars: for EC50 / LD50: artificial diet, after three days. It counts as in vivo, Rhynchophorus ferrugineus. The protocol: Insecticidal potential of coumarin at different dose concentrations (200 ppm, 400 ppm, 600 ppm, 800 ppm and 1000 ppm) was evaluated against 4th, 8th and 12th instar Red Palm Weevil larvae. The above mentioned concentrations of coumarin were prepared by dissolving coumarin in 0.05% acetone. The ingredients of artificial diet (wheat flour @ 45 g/L, corn flour @ 45 g/L, Yeast @ 45 g/L, Agar @ 17.5 g/L, Sorbic acid @ 1.6 g/L, L-Ascorbic Acid @ 4 g/L, Pharmaton (2 capsules/L), Tetracycline @ 500 mg/L) were dissolved in 1 L of coumarin solution with strength 200 mg/L, 400 mg/L, 600 mg/L, 800 mg/L and 1000 mg/L, separately. The newly moulted 4th, 8th and 12th instar Red Palm Weevil larvae were allowed to feed on each diet separately in perforated plastic bowls. In case of control treatment, 0.05% acetone was used to prepare the diet. Twenty larvae were used to compile one replicate. Five replicates were prepared likewise. The fresh diet was provided daily to the larvae. The experimental units were incubated at 30±1° C. and 75%±5% relative humidity. Abbot formula was used to correct the control mortality (Abbott, 1925). Efficacy of coumarin was determined at each dose to calculate LD50 values.

Test [2] has as its system Red Palm Weevil larvae. Description: Growth indices bioassay (nutritional indices ECI, ECD, AD) on coumarin-incorporated artificial diet. It counts as in vivo, Rhynchophorus ferrugineus. Particulars: 72 hours post exposure; for inhibition at 1000 ppm: Rhynchophorus ferrugineus, feed or water, 72 h, 1000 ppm in diet. Here is the method:
Impact of different doses of coumarin on the growth and development of different larval instars of red palm weevil was evaluated by growth indices bioassays. All the solutions of coumarin were prepared by dissolving in 0.05% acetone. The ingredients of artificial diet (wheat flour @ 45 g/L, corn flour @ 45 g/L, Yeast @ 45 g/L, Agar @ 17.5 g/L, Sorbic acid @ 1.6 g/L, L-Ascorbic Acid @ 4 g/L, Pharmaton (2 capsules/L), Tetracycline @ 500 mg/L) were dissolved in 1 L of coumarin solution with strength 200 mg/L, 400 mg/L, 600 mg/L, 800 mg/L and 1000 mg/L of coumarin, separately. Newly moulted 4th, 8th and 12th instar Red Palm Weevil larvae were allowed to feed on each diet separately in perforated plastic bowls. In case of control treatment, 0.05% acetone was used to prepare the diet. Twenty larvae were used to compile one replicate. Five replicates were prepared likewise. The fresh diet was daily provided to the larvae. The experimental units were incubated at 30±1° C. and 75%±5% relative humidity. Initial and final weight of the larvae and the frass produced during 72 hours post exposure was also measured. These measurements were used to determine the impact of coumarin on the nutritional indices including: Approximate Digestibility [AD=([…]−frass weight)/food ingested×100], Efficacy of conversion of digested food [ECD=weight gained by the larva/(food ingested−dry weight of frass)×100] and Efficacy of conversion of ingested food [ECI=100×dry weight gained by the larva/dry weight of food consumed].
For growth indices, measurements were made 72 hours post-exposure on dry matter basis. Larvae, frass and remaining food after 72 h were dried at 60° C. until constant weight. Growth indices data were analyzed by one way analysis of variance (ANOVA). Means were compared by Fisher's Least Significant Difference (LSD) test.

[3] abbreviates: 4th, 8th and 12th instar larvae, 200-1000 ppm in diet.

Molecules are shown by their SMILES. Where two headings read alike, the source gives them in different places.

Experimental findings from patent publication US9596851B1, “Method for controlling growth of red palm weevil” (priority 2015, dated 2017) are described below.

As a reminder, the inhibition is the change of the read-out against control, counted positive when it falls. With `O=c1ccc2ccccc2o1` [coumarin], the results for the EC50 in test [1] (4th instar larvae), in test [1] (8th instar larvae) and in test [1] (12th instar larvae) were 293.77 ppm, 438.32 ppm and 559.77 ppm, respectively. The LD50 was found to be 404.55 ppm in test [1] (4th instar larvae), 509.37 ppm in test [1] (8th instar larvae) and 708.24 ppm in test [1] (12th instar larvae). For the same compound, the mortality versus dose result in test [1] (setting [3]) was “directly proportional”. Further, the “approximate digestibility (AD)” value in test [2] (setting [3]) was “significantly increased”. The inhibition at 1000 ppm in test [2] (4th instar larvae, read-out: ECD (efficacy of conversion of digested food) inhibition compared to control) was 96.9%; in test [2] (4th instar larvae, read-out: ECI (efficacy of conversion of ingested food) inhibition compared to control), 95.6%; in test [2] (8th instar larvae, read-out: ECD (efficacy of conversion of digested food) inhibition compared to control) it was 89%; in test [2] (8th instar larvae, read-out: ECI (efficacy of conversion of ingested food) inhibition compared to control), 84%; in test [2] (12th instar larvae, read-out: ECD (efficacy of conversion of digested food) inhibition compared to control), 78.5%; in test [2] (12th instar larvae, read-out: ECI (efficacy of conversion of ingested food) inhibition compared to control), 69.4%.
